Assay [1] concerns the target T1, Brugia Hsp90 (Brugia pahangi, UniProt O61998).
T1 construct: from tissue; host or cells: whole adult B. pahangi worms from infected gerbils, ground and re-suspended in HFB assay buffer
In words: biochemical. It counts as binding. The conditions noted are these: for IC50: 6 nM cy3B-GA, 2 µg/well Brugia extract, 4°C, 24 h; for dose-dependent reduction of the FP signal: Figure 3B, Brugia extract. The protocol: FP measurements were performed using black 96-well microtiter plates (Corning #3650), where both the excitation and the emission occurred from the top of the well, on an Analyst GT plate reader (Molecular Devices, Sunnyvale, CA). An integration time of 100 ms was used, and Z height was set at 3 mm (middle). The excitation polarization was set at static, and the emission polarization was set at dynamic. […] All FP values were expressed in millipolarization (mP) units. The mP values were calculated using the equation mP = 1000× [(IS – ISB) – (IP – IPB)]/[(IS – ISB) + (IP – IPB)], where IS is the parallel emission intensity measurement, IP is the perpendicular emission intensity sample measurement, and ISB and […] are the corresponding measurements for background (buffer). Total fluorescence was determined as 2×IP+IS.
For the competition studies, FP assays were performed as previously reported. […] Drugs were added to triplicate wells. […] Plates were incubated on a shaker at 4°C, and polarization values measured at 8 to 24 h.
(§1) Figure 3 Brugia assay validation. […] Ligand binding was plotted against the log10 inhibitor concentration, and EC50 values were calculated using a nonlinear least-square curve-fitting program in Prism 4.0. Points, mean; bars, s.d. […] Graphs show mean and SD of Mf output over a three-day period from six female worms per group.

Assay [2] relates to adult B. pahangi. In words: Condition and activity of adult B. pahangi worms in vitro. The arrangement: species or system Brugia pahangi. As for the experimental part: Mf output by individual female worms was assessed at two time points and adult worms were examined microscopically and their condition noted. Results are expressed as mean Mf output over a three-day period ± SD.

Assay [3] concerns adult female B. pahangi. In words: Mf output by adult female B. pahangi cultured in vitro with drug. The arrangement: species or system Brugia pahangi. The conditions noted are these: GA at 1 µM; PU-H71 and PU-DZ8 at 5 and 10 µM; three-day period. The protocol: (§2) Mf output by individual female worms was assessed at two time points and adult worms were examined microscopically and their condition noted. Results are expressed as mean Mf output over a three-day period ± SD. Statistical significance between groups was calculated using the Mann Whitney test with P values <0.05 being considered significant.
as §1

Assay [4] deals with B. pahangi Mf. In words: Mortality of purified B. pahangi Mf incubated in drug. The arrangement: species or system Brugia pahangi. The conditions noted are these: day 7. The protocol:
as §2
In separate experiments, Mf were purified from the peritoneal cavity of infected animals and incubated alone in each of the drugs.

The subject of assay [5] is adult female B. pahangi. Set-up: method as in PMID 15862576. The conditions noted are these: adult worms ref 14; cited from earlier work.

Results on eight molecules are retold here after article PMC2886105, “Assay Strategies for the Discovery and Validation of Therapeutics Targeting Brugia pahangi Hsp90” (PLoS Neglected Tropical Diseases, 2010).

Like-named read-outs stand apart in the source and are kept apart here.

A word on the IC50: it is the concentration that inhibits the measured activity by half. In general, EC50 refers to the midpoint of the concentration-response curve.

As for `CC(C)NCCCn1c(Sc2cc3c(cc2I)OCO3)nc2c(N)ncnc21` [PU-H71], the IC50 was found to be 80.8 ± 0.5 nM in assay [1] (Brugia IC50, Figure 4C) and 80 nM in assay [1] (IC50, inhibition of the binding of cy3B-GA to Brugia Hsp90, values in text for Figure 3C). Besides, the “activity of adult worms” value in assay [2] (5.0 µM) and in assay [2] (10 µM) was “markedly less active” each time. Moreover, the “concentration of drug required to kill adult Brugia” value in assay [2] (in vitro) is recorded as 2.5 µM. In assay [3], the “effect on Mf release” value is listed as “profound effect”. Besides, the Mf dead result in assay [4] (5.0 µM) is “approximately 80%”; in assay [4] (10 µM) it was 100%.
As to `CC(C)NCCCn1c(Sc2cc3c(cc2I)OCC3)nc2c(N)ncnc21` [PU-WS10], the “Selectivity ratio (Brugia IC50 / SKBr3 IC50)” value in assay [1] (Brugia vs human SKBr3 Hsp90 species) is reported as 9.
Consider `COC1=C2C[C@@H](C)C[C@H](OC)[C@H](O)[C@@H](C)/C=C(\C)[C@H](OC(N)=O)[C@@H](OC)/C=C\C=C(/C)C(=O)NC(=CC1=O)C2=O` [GA, geldanamycin], for which, in assay [3], the “effect on Mf release” value is listed as “profound effect”. In assay [4] (1.0 µM), the Mf dead entry is given as “all dead”. For the same molecule, in assay [5], the “onset of effect on Mf output” value is at most 24 h.
`Nc1ncnc2c1ncn2[C@@H]1O[C@H](COP(=O)(O)OP(=O)(O)O)[C@@H](O)[C@H]1O` [ADP]: the “dose-dependent reduction of the FP signal” value in assay [1] was “dose-dependent reduction of the FP signal”.
In assay [1], `CO[C@@H]1[C@@H](OC(N)=O)[C@@H](O)[C@H](Oc2ccc3c(O)c(NC(=O)c4ccc(O)c(CC=C(C)C)c4)c(=O)oc3c2C)OC1(C)C` [novobiocin] had a concentration for a half-maximal effect (EC50) above 10000 nM.
As to `C[C@@H]1C[C@H]2O[C@@H]2/C=C\C=C\C(=O)Cc2c(Cl)c(O)cc(O)c2C(=O)O1` [radicicol], the EC50 in assay [1] came out at 75.4 nM.
`C#CCCCn1c(Cc2cc(OC)c(OC)c(OC)c2Cl)nc2c(N)nc(F)nc21` [PU-24FCl]: in assay [1], the “Selectivity ratio (Brugia IC50 / SKBr3 IC50)” value worked out at 2. In assay [1] (Brugia IC50, Figure 4C), this molecule returned an IC50 of 1410 ± 10 nM.
On to ivermectin, for which the “dose-dependent reduction of the FP signal” value in assay [1] is listed as “no such effect”.
